Read-outs that look alike come from different tables or passages of the source.
Columns and labels:
K-Ras G12S = molecular target: T1, K-Ras G12S (Homo sapiens, UniProt P01116, G12S); assay: HTRF assay of the K-Ras / SOS1 interaction; type: biochemical; conditions: IC50 (against K-Ras G12D) to IC50 (against K-Ras G12S)
T1 construct: made in house; host or cells: E. coli (e.g., BL21 (DE3))
Method in brief: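 GST-K-Ras G12S with anti-GST-Eu donor and His-hSOS1 with anti-6His-XL665 acceptor in ~5 mM HEPES pH 7.4, ~150 mM NaCl, 1 mM DTT, 0.05% BSA, 0.0025% Igepal. Read after ~10 min or longer; IC50 from 665/620 nm ratio, duplicates at 10 µM down to 0.01 µM.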

A549 cells = assay: Cell proliferation assay (CellTiter-Glo), K-Ras G12S cells; type: cell-based; conditions: for IC50: Homo sapiens, A549, A549 cells (K-Ras G12S), read-out: Inhibition of A549 Cells (IC50); for ratio of IC50 against a G12D cell line to IC50 against a G12S cell line: K-Ras G12D cell line such as GP2D relative to K-Ras G12S cell line such as A549, greater than 1, 2, 3, 4, 5, 10, 15 or even greater, 8640 min
Method in brief: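 A549 cells (K-Ras G12S) in RPMI-1640 with 10% FBS, seeded in standard or ultra-low-attachment plates and dosed next day with a 10-point 3-fold series. Viability read about 6 days later by CellTiter-Glo luminescence. IC50 from four-parameter fit.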

GP2D cells = assay: Cell proliferation assay (CellTiter-Glo), K-Ras G12D cells; type: cell-based; conditions: GP2D cells (K-Ras G12D); read-out: Inhibition of GP2D Cells (IC50)
Method in brief: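 GP2D (K-Ras G12D) cells seeded in DMEM with 2 mM glutamine and 10% FBS, then dosed next day with a dilution series (e.g., 9-point 3-fold). Viability read by CellTiter-Glo luminescence after about 5 days. IC50 from four-parameter fit.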

T1 sequence (P01116 1-188 isoform P01116-2 G12S): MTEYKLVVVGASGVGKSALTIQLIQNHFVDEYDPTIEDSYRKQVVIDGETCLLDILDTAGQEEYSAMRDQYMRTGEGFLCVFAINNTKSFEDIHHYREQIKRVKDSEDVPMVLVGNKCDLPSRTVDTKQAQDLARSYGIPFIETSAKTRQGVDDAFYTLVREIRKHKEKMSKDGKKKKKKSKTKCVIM

SMILES	Ratio of IC50 KRAS G12D vs. IC50 KRAS G12S (K-Ras G12S)	IC50 (A549 cells; bin ≤ 500 nM) [nM]	IC50 (GP2D cells) [nM]	IC50 (A549 cells; bin 500 nM to 5 µM) [nM]	ratio of IC50 against a G12D cell line to IC50 against a G12S cell line (A549 cells)
N#Cc1c(N)sc2c(F)ccc(-c3c(Cl)cc4c(N5CC6(CCCCN(C(=O)n7cncn7)C6)C5)nc(OC[C@@]56CCCN5C[C@H](F)C6)nc4c3F)c12 [Compound A285, 4-(4-(6-(1H-1,2,4-triazole-1-carbonyl)-2,6-diazaspiro[3.6]decan-2-yl)-6-chloro-8-fluoro-2-(((2R,7aS)-2-fluorotetrahydro-1H-pyrrolizin-7a(5H)-yl)methoxy)quinazolin-7-yl)-2-amino-7-fluorobenzo[b]thiophene-3-carbonitrile]	A (A: indicates that the ratio of IC50 against KrasG12D vs. IC50 against KrasG12S is 1-fold or greater)	≤ 500	1000 to 10000		
C#Cc1c(F)ccc2cc(O)cc(-c3ncc4c(N5CCOCC6(CN(C(=O)n7cnc(C)n7)C6)C5)nc(OC[C@@]56CCCN5C[C@H](F)C6)nc4c3F)c12 [Compound A298, (9-(7-(8-ethynyl-7-fluoro-3-hydroxynaphthalen-1-yl)-8-fluoro-2-(((2R,7aS)-2-fluorotetrahydro-1H-pyrrolizin-7a(5H)-yl)methoxy)pyrido[4,3-d]pyrimidin-4-yl)-6-oxa-2,9-diazaspiro[3.6]decan-2-yl)(3-methyl-1H-1,2,4-triazol-1-yl)methanone]	A (A: indicates that the ratio of IC50 against KrasG12D vs. IC50 against KrasG12S is 1-fold or greater)		1000 to 10000	500 to 5000	greater than 1
Cc1ncn(C(=O)N2CC3CCN(c4nc(OC[C@@]56CCCN5C[C@H](F)C6)nc5c(F)c(-c6ccc(F)c7sc(N)c(C#N)c67)c(Cl)cc45)C3C2)n1 (stereo partly drawn) [Compound A304, 2-amino-4-(6-chloro-8-fluoro-2-(((2R,7aS)-2-fluorotetrahydro-1H-pyrrolizin-7a(5H)-yl)methoxy)-4-(5-(3-methyl-1 H-1,2,4-triazole-1-carbonyl)hexahydropyrrolo[3,4-b]pyrrol-1(2H)-yl)quinazolin-7-yl)-7-fluorobenzo[b]thiophene-3-carbonitrile]	A (A: indicates that the ratio of IC50 against KrasG12D vs. IC50 against KrasG12S is 1-fold or greater)	≤ 500	1000 to 10000		greater than 1
